This assay has as its target T1, MAPK10 (JNK3) (Homo sapiens, UniProt P53779).
T1 construct: purchased Thermo Fisher Scientific (Life Technologies) SelectScreen
Briefly: SelectScreen Z'LYTE. The following applies: ATP 100 µM. Type of assay: biochemical. The gist of the method: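 SelectScreen broad panel; activity (Z'LYTE, Adapta) plus binding formats. ATP: Km app for CSF1R Z'LYTE; 10 for CAMK1 Adapta. Readout = % per kinase.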

The structures appear in SMILES notation.

This passage reports inhibition results from paper PMC6934184, “Selective DNA-PKcs inhibition extends the therapeutic index of localized radiotherapy and chemotherapy” (The Journal of Clinical Investigation, 2019).

T1 sequence (P53779 whole entry): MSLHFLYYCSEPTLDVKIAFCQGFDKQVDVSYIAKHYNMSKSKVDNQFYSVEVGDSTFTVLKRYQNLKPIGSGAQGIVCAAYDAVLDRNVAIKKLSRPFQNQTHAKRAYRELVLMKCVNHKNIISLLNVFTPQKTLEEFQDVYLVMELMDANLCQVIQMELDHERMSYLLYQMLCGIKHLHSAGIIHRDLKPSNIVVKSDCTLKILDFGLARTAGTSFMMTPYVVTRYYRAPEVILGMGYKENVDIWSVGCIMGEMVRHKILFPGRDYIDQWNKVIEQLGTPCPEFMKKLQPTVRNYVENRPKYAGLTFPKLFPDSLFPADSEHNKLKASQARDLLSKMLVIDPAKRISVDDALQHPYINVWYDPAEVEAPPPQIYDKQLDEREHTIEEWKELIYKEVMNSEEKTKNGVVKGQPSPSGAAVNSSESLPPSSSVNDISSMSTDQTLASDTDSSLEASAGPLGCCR

Regarding `CN(C(=O)CN1CCOCC1)c1ccc2sc3c(-c4cccc5c(=O)cc(N6CC7CCC(C6)O7)oc45)cccc3c2c1` [NU5455], the inhibition at 1 µM is 9%.

As usually defined, the inhibition is the percentage by which the read-out fell short of the control. A low value points to little suppression.
